The record followed here is ChEMBL document CHEMBL3991601, “The target landscape of clinical kinase drugs” (Science, 2017).

Experiment [1] addresses T1, Serine/threonine-protein kinase ULK1 (Homo sapiens, UniProt O75385).
T1 sequence (O75385 whole entry): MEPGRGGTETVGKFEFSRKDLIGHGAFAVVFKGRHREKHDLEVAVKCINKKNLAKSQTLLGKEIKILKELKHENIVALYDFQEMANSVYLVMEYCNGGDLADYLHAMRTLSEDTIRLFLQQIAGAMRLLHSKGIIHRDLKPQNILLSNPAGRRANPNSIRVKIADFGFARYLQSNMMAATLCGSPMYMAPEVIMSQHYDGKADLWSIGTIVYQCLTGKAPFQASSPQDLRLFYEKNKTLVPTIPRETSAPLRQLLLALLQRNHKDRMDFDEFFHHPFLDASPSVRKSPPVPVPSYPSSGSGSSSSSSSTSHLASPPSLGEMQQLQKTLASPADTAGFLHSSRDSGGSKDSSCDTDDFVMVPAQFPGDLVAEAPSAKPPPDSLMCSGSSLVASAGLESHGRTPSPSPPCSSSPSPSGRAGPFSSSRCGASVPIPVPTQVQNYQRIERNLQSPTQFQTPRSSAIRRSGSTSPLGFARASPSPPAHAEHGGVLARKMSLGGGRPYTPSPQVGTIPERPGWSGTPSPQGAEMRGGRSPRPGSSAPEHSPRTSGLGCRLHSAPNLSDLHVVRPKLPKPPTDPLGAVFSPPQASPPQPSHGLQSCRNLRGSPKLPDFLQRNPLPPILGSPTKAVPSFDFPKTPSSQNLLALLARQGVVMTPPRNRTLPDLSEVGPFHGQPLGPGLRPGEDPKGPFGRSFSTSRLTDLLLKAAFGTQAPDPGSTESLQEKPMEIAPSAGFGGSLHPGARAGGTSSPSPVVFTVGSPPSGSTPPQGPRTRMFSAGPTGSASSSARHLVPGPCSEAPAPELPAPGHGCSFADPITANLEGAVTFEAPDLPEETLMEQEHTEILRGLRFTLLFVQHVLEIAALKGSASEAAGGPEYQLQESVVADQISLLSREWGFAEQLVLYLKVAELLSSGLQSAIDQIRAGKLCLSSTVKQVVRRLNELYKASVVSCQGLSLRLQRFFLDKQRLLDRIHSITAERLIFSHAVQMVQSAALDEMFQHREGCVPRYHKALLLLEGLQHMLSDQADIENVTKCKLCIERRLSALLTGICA

The next experiment deals with T2, TGF-beta receptor type-1 (Homo sapiens, UniProt P36897).
T2 sequence (P36897 whole entry): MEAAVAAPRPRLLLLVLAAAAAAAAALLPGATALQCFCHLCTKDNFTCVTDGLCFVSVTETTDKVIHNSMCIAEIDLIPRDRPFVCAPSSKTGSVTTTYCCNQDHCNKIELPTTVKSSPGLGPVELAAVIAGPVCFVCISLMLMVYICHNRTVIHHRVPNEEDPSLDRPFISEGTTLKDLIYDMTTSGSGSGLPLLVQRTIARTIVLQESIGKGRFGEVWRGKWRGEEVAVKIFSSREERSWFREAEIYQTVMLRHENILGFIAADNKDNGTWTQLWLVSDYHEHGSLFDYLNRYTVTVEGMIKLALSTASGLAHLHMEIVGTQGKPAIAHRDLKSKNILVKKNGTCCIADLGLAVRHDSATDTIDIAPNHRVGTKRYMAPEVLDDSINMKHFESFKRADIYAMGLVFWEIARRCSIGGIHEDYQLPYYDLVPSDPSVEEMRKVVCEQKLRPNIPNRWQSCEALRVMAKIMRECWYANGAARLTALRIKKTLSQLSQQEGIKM

In experiment [2] the target is Ribosomal protein S6 kinase alpha-4 (Homo sapiens, UniProt O75676).
Experiment [3] addresses T3, Phenylalanine--tRNA ligase beta subunit (Homo sapiens, UniProt Q9NSD9).
T3 sequence (Q9NSD9 whole entry): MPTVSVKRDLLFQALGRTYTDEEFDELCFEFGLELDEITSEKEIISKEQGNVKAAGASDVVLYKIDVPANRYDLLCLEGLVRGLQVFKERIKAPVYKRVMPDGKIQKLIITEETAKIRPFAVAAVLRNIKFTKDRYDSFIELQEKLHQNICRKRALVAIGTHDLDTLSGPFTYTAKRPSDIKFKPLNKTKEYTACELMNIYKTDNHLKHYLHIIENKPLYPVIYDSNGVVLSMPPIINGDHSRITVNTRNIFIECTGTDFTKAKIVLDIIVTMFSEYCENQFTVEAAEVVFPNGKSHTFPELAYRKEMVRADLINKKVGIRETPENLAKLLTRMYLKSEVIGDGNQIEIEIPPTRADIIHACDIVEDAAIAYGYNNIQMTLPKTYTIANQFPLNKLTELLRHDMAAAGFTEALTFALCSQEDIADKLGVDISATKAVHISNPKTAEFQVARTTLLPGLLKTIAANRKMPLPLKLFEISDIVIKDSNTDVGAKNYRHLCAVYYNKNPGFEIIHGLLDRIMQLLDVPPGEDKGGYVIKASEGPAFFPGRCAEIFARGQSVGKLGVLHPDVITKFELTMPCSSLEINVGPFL

Experiment [4] has as its target cAMP-dependent protein kinase catalytic subunit alpha (Homo sapiens, UniProt P17612).
In experiment [5] the target is Mitogen-activated protein kinase kinase kinase 4 (Homo sapiens, UniProt Q9Y6R4).
Experiment [6] deals with T4, Mitogen-activated protein kinase kinase kinase 3 (Homo sapiens, UniProt Q99759).
T4 sequence (Q99759 whole entry): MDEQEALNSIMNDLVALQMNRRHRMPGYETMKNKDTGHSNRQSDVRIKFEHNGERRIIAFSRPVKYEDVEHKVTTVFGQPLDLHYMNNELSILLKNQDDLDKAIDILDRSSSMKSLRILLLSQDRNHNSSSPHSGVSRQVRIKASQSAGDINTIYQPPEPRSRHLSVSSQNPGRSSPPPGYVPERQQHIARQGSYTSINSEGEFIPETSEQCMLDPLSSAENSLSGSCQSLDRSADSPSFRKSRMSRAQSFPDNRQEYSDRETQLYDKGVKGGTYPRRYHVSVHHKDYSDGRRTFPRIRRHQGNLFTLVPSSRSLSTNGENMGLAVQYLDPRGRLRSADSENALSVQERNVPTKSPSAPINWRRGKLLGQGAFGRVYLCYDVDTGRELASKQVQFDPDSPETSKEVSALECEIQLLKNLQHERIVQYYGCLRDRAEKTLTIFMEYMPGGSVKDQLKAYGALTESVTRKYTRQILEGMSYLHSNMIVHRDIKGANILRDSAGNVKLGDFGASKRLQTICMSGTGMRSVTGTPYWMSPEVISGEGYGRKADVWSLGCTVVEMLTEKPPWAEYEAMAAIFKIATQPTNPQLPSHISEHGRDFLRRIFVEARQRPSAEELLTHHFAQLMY

For experiment [7], the target named is 5'-AMP-activated protein kinase catalytic subunit alpha-1 (Homo sapiens, UniProt Q13131).

Calls of active or inactive are those of the source. Rule as the data show it, for most assays here: actives have a measured Kd and inactives only a lower limit.
Also: in the data inactive means no Kd found up to 30 µM.

Chain of Ribosomal protein S6 kinase alpha-4 (O75676 whole entry): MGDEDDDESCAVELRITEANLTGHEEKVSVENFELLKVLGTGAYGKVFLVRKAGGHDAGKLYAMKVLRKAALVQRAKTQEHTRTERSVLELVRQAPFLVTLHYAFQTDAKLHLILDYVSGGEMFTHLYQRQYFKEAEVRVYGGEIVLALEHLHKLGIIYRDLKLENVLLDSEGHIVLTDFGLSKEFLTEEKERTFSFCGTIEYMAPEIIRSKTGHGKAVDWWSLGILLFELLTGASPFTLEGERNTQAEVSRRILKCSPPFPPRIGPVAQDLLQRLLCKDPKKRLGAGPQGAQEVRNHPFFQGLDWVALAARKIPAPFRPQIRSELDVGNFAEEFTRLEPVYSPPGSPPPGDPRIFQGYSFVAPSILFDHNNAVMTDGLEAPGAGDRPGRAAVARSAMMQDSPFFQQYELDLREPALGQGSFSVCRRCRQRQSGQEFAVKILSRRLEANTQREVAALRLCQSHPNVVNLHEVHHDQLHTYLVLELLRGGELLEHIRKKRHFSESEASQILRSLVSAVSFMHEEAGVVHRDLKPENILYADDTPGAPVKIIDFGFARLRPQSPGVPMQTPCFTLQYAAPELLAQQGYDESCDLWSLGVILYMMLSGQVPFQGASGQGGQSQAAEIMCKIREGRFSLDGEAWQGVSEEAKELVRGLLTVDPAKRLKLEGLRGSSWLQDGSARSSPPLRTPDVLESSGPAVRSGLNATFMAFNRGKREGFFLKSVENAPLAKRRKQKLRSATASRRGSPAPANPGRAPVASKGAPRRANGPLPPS
Chain of Mitogen-activated protein kinase kinase kinase 4 (Q9Y6R4 whole entry): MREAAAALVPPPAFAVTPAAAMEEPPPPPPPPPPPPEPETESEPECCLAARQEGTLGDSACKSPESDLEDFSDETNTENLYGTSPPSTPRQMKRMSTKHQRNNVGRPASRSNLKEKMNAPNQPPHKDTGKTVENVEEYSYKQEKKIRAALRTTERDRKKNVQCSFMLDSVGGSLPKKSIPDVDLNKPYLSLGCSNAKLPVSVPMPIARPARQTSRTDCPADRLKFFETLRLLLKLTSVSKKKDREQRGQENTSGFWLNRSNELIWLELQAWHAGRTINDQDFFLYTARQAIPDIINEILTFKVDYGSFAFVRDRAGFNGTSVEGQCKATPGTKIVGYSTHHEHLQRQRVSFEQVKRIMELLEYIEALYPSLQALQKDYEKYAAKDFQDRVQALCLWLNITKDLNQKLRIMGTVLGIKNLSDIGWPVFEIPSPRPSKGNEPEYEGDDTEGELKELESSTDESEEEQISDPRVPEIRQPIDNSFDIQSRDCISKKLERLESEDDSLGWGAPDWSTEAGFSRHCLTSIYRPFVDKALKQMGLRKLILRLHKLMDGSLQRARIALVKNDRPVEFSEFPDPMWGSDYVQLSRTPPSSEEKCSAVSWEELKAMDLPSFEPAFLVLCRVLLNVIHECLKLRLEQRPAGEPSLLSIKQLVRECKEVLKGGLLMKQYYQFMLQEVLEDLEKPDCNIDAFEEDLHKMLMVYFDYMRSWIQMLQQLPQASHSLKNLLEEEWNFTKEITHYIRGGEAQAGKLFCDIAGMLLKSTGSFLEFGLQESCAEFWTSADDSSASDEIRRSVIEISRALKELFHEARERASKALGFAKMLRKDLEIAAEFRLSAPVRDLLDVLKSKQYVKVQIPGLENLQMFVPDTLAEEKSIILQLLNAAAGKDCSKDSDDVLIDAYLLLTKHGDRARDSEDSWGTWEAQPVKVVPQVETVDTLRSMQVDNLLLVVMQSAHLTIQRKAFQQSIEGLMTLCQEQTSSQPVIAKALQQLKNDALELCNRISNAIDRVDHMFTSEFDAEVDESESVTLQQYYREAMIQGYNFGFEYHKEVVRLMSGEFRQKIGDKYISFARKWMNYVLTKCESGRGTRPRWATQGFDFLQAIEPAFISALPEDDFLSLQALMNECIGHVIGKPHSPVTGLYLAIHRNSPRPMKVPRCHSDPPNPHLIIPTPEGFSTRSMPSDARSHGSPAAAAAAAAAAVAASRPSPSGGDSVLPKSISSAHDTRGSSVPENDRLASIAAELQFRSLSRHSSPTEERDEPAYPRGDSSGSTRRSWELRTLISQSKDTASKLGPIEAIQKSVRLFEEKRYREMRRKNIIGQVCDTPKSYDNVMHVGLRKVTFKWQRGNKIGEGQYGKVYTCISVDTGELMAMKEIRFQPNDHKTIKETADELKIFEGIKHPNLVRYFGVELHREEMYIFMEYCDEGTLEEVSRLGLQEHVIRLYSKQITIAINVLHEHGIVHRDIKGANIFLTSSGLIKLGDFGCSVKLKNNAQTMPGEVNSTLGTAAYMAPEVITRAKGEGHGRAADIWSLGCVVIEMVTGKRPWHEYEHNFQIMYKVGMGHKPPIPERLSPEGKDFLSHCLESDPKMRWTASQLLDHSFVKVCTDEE
Chain of 5'-AMP-activated protein kinase catalytic subunit alpha-1 (Q13131 whole entry): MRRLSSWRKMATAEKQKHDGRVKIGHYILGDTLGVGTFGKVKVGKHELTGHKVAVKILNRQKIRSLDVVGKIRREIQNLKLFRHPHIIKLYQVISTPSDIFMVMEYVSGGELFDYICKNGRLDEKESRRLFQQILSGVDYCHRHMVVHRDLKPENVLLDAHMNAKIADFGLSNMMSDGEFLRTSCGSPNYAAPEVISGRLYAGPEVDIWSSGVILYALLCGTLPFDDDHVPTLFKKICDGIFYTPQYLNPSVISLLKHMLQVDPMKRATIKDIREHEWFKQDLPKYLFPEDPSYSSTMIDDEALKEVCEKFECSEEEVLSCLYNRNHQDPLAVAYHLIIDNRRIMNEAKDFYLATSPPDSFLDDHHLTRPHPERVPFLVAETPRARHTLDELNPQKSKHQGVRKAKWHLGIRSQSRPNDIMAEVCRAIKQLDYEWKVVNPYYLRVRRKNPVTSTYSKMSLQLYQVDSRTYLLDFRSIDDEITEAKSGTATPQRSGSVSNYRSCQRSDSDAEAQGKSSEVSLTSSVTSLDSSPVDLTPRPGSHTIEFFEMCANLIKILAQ

For the compound `CC(=O)c1cnc2ccc(-c3cc(Cl)c(O)c(Cl)c3)nc2c1N[C@H]1CC[C@H](CN(C)C)CC1`, the Kd in experiment [1] was > 30 µM (inactive); at TGF-beta receptor type-1, 0.149 µM (active); in experiment [2], 0.111 µM (active); in experiment [3] it was > 30 µM (inactive); in experiment [4] it was > 30 µM (inactive); in experiment [5] it was > 30 µM (inactive).
For the compound `COc1cc(Nc2ncc3c(n2)-c2ccc(Cl)cc2C(c2c(F)cccc2OC)=NC3)ccc1C(=O)O` [ALISERTIB], the Kd (in experiment [1]; at TGF-beta receptor type-1; in experiment [6]; in experiment [3]; in experiment [4]; in experiment [5]) was > 30 µM (inactive) throughout.
`O=C(Nc1c[nH]nc1-c1nc2cc(CN3CCOCC3)ccc2[nH]1)NC1CC1` [AT-9283]: the Kd in experiment [1] is > 30 µM (inactive); on TGF-beta receptor type-1, 0.077 µM (active); in experiment [6] it was 0.345 µM (active); in experiment [3], > 30 µM (inactive); in experiment [4], 3.19 µM (active); in experiment [7], 0.05 µM (active).
For the compound `CNC(=O)c1ccccc1Sc1ccc2c(/C=C/c3ccccn3)n[nH]c2c1` [AXITINIB], the Kd in experiment [3] is > 30 µM (inactive).
On to `COc1cc([C@@H]2c3cc4c(cc3[C@H](O)[C@H]3COC(=O)[C@@H]23)OCO4)cc(OC)c1OC` [AXL-1717], for which the Kd (at TGF-beta receptor type-1; in experiment [6]; in experiment [2]; in experiment [3]; in experiment [4]; in experiment [5]) was > 30 µM (inactive) each time. For the same compound, in experiment [7], the Kd is > 30 µM (inactive).
Turning to `CC(C)(C)c1nc(-c2cccc(NS(=O)(=O)c3c(F)cccc3F)c2F)c(-c2ccnc(N)n2)s1` [DABRAFENIB], the Kd in experiment [1] is 0.188 µM (active); at TGF-beta receptor type-1 it was 2.38 µM (active); in experiment [3] it was > 30 µM (inactive); in experiment [5], > 30 µM (inactive).
In the case of `Cn1cc(C2=C(c3cn(C4CCN(Cc5ccccn5)CC4)c4ccccc34)C(=O)NC2=O)c2ccccc21` [ENZASTAURIN], the Kd in experiment [3] was > 30 µM (inactive).
For the compound `Cc1cccc(-c2nn3c(c2-c2ccnc4ccc(C(N)=O)cc24)CCC3)n1` [GALUNISERTIB], the Kd in experiment [1], in experiment [6], in experiment [2], in experiment [3], in experiment [4] and in experiment [5] was > 30 µM (inactive) each time. In addition, the Kd in experiment [7] is > 30 µM (inactive).
As to `C[C@@H](Oc1cc(-n2cnc3ccc(CN4CCN(C)CC4)cc32)sc1C(N)=O)c1ccccc1C(F)(F)F` [GSK-461364], the Kd in experiment [3] is > 30 µM (inactive).
As for `O=C(Nc1cc(C(F)(F)F)cc(C(F)(F)F)c1)c1cc(Cl)ccc1O` [IMD-0354], the Kd (in experiment [1]; at TGF-beta receptor type-1; in experiment [6]; in experiment [2]; in experiment [3]; in experiment [4]) was > 30 µM (inactive) in each case. Moreover, the Kd in experiment [5] was > 30 µM (inactive).
For `Cc1[nH]c(/C=C2\C(=O)Nc3ccccc32)c(C)c1CCC(=O)O` [ORANTINIB], the Kd is > 30 µM (inactive) in experiment [1]; > 30 µM (inactive) at TGF-beta receptor type-1; > 30 µM (inactive) in experiment [6]; 1.39 µM (active) in experiment [2]; > 30 µM (inactive) in experiment [3]; > 30 µM (inactive) in experiment [5].
As to `NC(=O)c1c(OCc2c(F)cc(Br)cc2F)nsc1NC(=O)NCCCCN1CCCC1` [OSI-632], the Kd at TGF-beta receptor type-1 is 0.005 µM (active); in experiment [3] it was > 30 µM (inactive); in experiment [5], > 30 µM (inactive).
On to `Cc1nc(Nc2n[nH]c3c2CN(C(=O)N[C@H](CN(C)C)c2ccccc2)C3(C)C)c2sccc2n1` [PF-03758309], for which the Kd in experiment [1] is > 30 µM (inactive); on TGF-beta receptor type-1, > 30 µM (inactive); in experiment [6], > 30 µM (inactive); in experiment [3], > 30 µM (inactive); in experiment [4], 0.935 µM (active); in experiment [5] it was > 30 µM (inactive). Besides, the Kd in experiment [7] is 0.006 µM (active).
As to `CC(=O)NCC(=O)N1[C@@H]2CC[C@H]1c1ccc(Nc3ncc(C(F)(F)F)c(NC4CCC4)n3)cc12` [PF-03814735], the dissociation constant (Kd) was 0.028 µM (active) in experiment [1]; > 30 µM (inactive) at TGF-beta receptor type-1; 0.246 µM (active) in experiment [6]; 0.156 µM (active) in experiment [2]; > 30 µM (inactive) in experiment [3]; > 30 µM (inactive) in experiment [5].
As to `O=C(NOCCO)c1cc(CN2OCCCC2=O)c(F)c(F)c1Nc1ccc(I)cc1F` [RO-4987655], the Kd in experiment [3] was > 30 µM (inactive).
In the case of `N#CC[C@H](C1CCCC1)n1cc(-c2ncnc3[nH]ccc23)cn1` [RUXOLITINIB], the Kd in experiment [3] is > 30 µM (inactive).
`CCS(=O)(=O)c1cccc(-c2cc(C(=O)NC3CCN(C)CC3)c(C)c3[nH]c4ncc(C)cc4c23)c1` [TAK-901]: the Kd is > 30 µM (inactive) in experiment [1]; 0.197 µM (active) on TGF-beta receptor type-1; > 30 µM (inactive) in experiment [6]; 3 µM (active) in experiment [2]; > 30 µM (inactive) in experiment [3]; > 30 µM (inactive) in experiment [4]. For the same compound, in experiment [5], the Kd is > 30 µM (inactive).
As for `CC(C)c1cc(CNc2nc(Nc3cc(C4CC4)[nH]n3)cc(N3CCN(C)CC3)n2)on1` [XL-228], the Kd in experiment [1], in experiment [6], in experiment [2], in experiment [3], in experiment [4] and in experiment [5] was > 30 µM (inactive) throughout. Besides, in experiment [7], the Kd is 0.38 µM (active).

What is called Kd is a measure of binding affinity in units of concentration.
